Measurements: patent US20110207760A1, “SN-38 COMPOSITIONS” (priority 2010, published 2011)

Assays:
[1] = tested on: Human Colon Carcinoma LoVo DX Cells; assay: Growth of subcutaneous solid tumor of LoVo DX cells in mice; assay type: in vivo, Balb/c mice; settings: treated group, (SEM); for Tumor volume: SN-38 4.5 mg/kg in 20% SBECD i.p. twice daily; for Tumor volume increase: relative to day 0 of treatment
From the text: Lovo Dx cells (2.5×10^6 cells per an injection) in culture medium with 30% Matrigel were subcutaneously inoculated at 2 sides of the flank (in the mid-flank) of each of 15 Balb/c mice. 20 days after inoculation the animals were randomly divided into 2 groups: control (8 mice) and treated (7 animals). On day 21, 24, 27 and 30 after inoculation (days 1, 4, 7, and 10 of treatment), twice daily, at 10 am and at 4 pm, the animals received intraperitoneal injections. Control animals received each time injection of 0.49 mL of 0.9% saline. Treated animals received each time injection of SN-38 solution in 20% SBECD (w/w), 4.5 mg/kg of SN-38. The SN-38 solution for the treatment was prepared by the dilution of concentrated composition of the Example 1 with water. Tumor sizes and body weight of each animal was monitored during treatment. The results represented as average tumor volume estimated from measurements of tumor diameters (V=0.5*D1*D2*D2, where Dl and D2 are longer and shorter diameter of the tumor) are presented in Table 7 below (the standard error of mean is in parentheses).

[2] = room temperature; cited from earlier work
[3] = Physical stability of SN-38 in diluted aqueous cyclodextrin solutions (HPLC); assay type: physicochemical; settings: for Concentration of SN-38 relative to time 0 h: room temperature
Method: (§1) Aliquots of the resultant SN-38 composition in aqueous SBECD were diluted 6 times with water, and further diluted with 10% (w/w) aqueous SBECD to obtain samples having a concentration suitable for HPLC analysis. The samples were analyzed by HPLC using column Symmetry Shield C18 3.5 μ, 50×4.6 mm (Waters), water (0.1% TFA)—acetonitrile (0.1% TFA) gradient and UV detection at 225 nm and 260 nm. The concentrations of SN-38 in the samples were determined by comparison of the area under the peak with the results obtained from analysis of standard solutions.
The SN-38 solution prepared as in the Example 1 was diluted with water, by weight, to obtain solutions containing respectively 5% SBECD, 10% SBECD, and 20% SBECD. All solutions were kept at room temperature and periodically analyzed by HPLC using the method described in the Example 1.
(§2) A solution of SN-38 in hydroxypropyl beta-cyclodextrin (HPbCD) was prepared using the procedure described in the Example 1. This solution was subsequently diluted with water, by weight, to obtain HPbCD concentration 20%. The relative change of SN-38 concentration in this solution after 70 hours was determined as described above, and is noted in Table 3 below.
as §2, with “in dimethyl” for “in hydroxypropyl”, “beta-cyclodextrin (DMbCD)” for “beta-cyclodextrin (HPbCD)”, “obtain DMbCD” for “obtain HPbCD”, “after 22.5” for “after 70”, “Table 4” for “Table 3”

[4] = Pharmacokinetics of SN-38 and SN-38G after i.v. dosing of SN-38 in 40% SBECD; assay type: in vivo, Female Sprague-Dawley rats; settings: female, Sprague-Dawley, rat, in vivo, iv
Method: Female Sprague-Dawley rats, 4 animals per group received i.v. injections of SN-38 (doses 0.65 mg/kg and 2 mg/kg) in 40% SBECD. The SN-38 solution for the treatment was prepared by the dilution of concentrated composition of the Example 1 with water. The blood plasma samples were collected from each group of animals, extracted using liquid extraction with cold methanol/acetonitrile mixture (1:1 v/v), and analyzed using a HPLC method with fluorescent detection. The results, including levels of SN-38 and SN-38G in plasma and calculated values of area under the curve (AUC) for SN-38 and SN-38G are presented in Tables 5 and 6 below.

[5] = Dissolution of SN-38 in 60% (w/w) aqueous SBECD at 34° C. (HPLC); assay type: physicochemical; settings: Example 2: 60% (w/w) aqueous SBECD, 48 hours, filtered
Method: as §1
A sample of 4 g of 60% (w/w) aqueous SBECD was mixed with 2 mg of SN-38, and the mixture was incubated at 34° C. with constant mixing for 48 hours. The mixture was then filtered through 0.2 micrometer nylon filter and analyzed by HPLC as described in Example 1. The concentration of SN-38 in solution was 0.16 mg/g.

Concentration of SN-38 relative to time 0 h ([3]; 5% SBECD, 0 h): 100.0
Concentration of SN-38 relative to time 0 h ([3]; 5% SBECD, 5 h): 96.6
Concentration of SN-38 relative to time 0 h ([3]; 5% SBECD, 23 h): 91.4
Concentration of SN-38 relative to time 0 h ([3]; 5% SBECD, 47 h): 85.2
Concentration of SN-38 relative to time 0 h ([3]; 5% SBECD, 71 h): 79.2
Concentration of SN-38 relative to time 0 h ([3]; 5% SBECD, 98 h): 77.9
Concentration of SN-38 relative to time 0 h ([3]; 10% SBECD, 0 h): 100.0
Concentration of SN-38 relative to time 0 h ([3]; 10% SBECD, 5 h): 97.9
Concentration of SN-38 relative to time 0 h ([3]; 10% SBECD, 23 h): 94.9
Concentration of SN-38 relative to time 0 h ([3]; 10% SBECD, 47 h): 90.8
Concentration of SN-38 relative to time 0 h ([3]; 10% SBECD, 71 h): 87.7
Concentration of SN-38 relative to time 0 h ([3]; 10% SBECD, 98 h): 85.5
relative change of SN-38 concentration ([3]; 20% DMbCD, 0 h): 100.0
relative change of SN-38 concentration ([3]; 20% DMbCD, 22.5 h): 42.5
relative change of SN-38 concentration ([3]; 20% HPbCD, 0 h): 100.0
relative change of SN-38 concentration ([3]; 20% HPbCD, 70 h): 63.0
Concentration of SN-38 relative to time 0 h ([3]; 20% SBECD, 0 h): 100.0
Concentration of SN-38 relative to time 0 h ([3]; 20% SBECD, 5 h): 99.5
Concentration of SN-38 relative to time 0 h ([3]; 20% SBECD, 23 h): 97.6
Concentration of SN-38 relative to time 0 h ([3]; 20% SBECD, 47 h): 96.3
Concentration of SN-38 relative to time 0 h ([3]; 20% SBECD, 71 h): 95.1
Concentration of SN-38 relative to time 0 h ([3]; 20% SBECD, 98 h): 93.2
AUC ([4]; 0.65 mg/kg): 106 ng·h/mL
Ratio AUC SN-38/SN-38G ([4]; 0.65 mg/kg): 0.39
concentration at 0.17 h ([4]; 0.65 mg/kg): 157 ng/mL
concentration at 0.5 h ([4]; 0.65 mg/kg): 41.3 ng/mL
concentration at 0.75 h ([4]; 0.65 mg/kg): 26.1 ng/mL
concentration at 1 h ([4]; 0.65 mg/kg): 18.2 ng/mL
concentration at 3 h ([4]; 0.65 mg/kg): 5.8 ng/mL
concentration at 6 h ([4]; 0.65 mg/kg): 1.2 ng/mL
AUC ([4]; 2 mg/kg): 323 ng·h/mL
concentration at 0.17 h ([4]; 2 mg/kg): 625 ng/mL
concentration at 0.5 h ([4]; 2 mg/kg): 157 ng/mL
concentration at 0.75 h ([4]; 2 mg/kg): 51.4 ng/mL
concentration at 1 h ([4]; 2 mg/kg): 29.8 ng/mL
concentration at 3 h ([4]; 2 mg/kg): 5.5 ng/mL
concentration at 6 h ([4]; 2 mg/kg): 5.3 ng/mL
concentration of SN-38 in solution [5]: 0.16 mg/g
Structure (SMILES): CCc1c2c(nc3ccc(O)cc13)-c1cc3c(c(=O)n1C2)COC(=O)[C@]3(O)CC [SN-38, (4S)-4,11-Diethyl-4,9-dihydroxy-1H-pyrano[3′,4′:6,7]indolizino[1,2-b]quinoline-3,14(4H,12H)dione]
Tumor volume ([1]; day 0 of treatment): 0.123 (0.010) cm^3
Tumor volume ([1]; day 4 of treatment): 0.128 (0.010) cm^3
Tumor volume ([1]; day 6 of treatment): 0.140 (0.011) cm^3
Tumor volume ([1]; day 8 of treatment): 0.142 (0.012) cm^3
Tumor volume ([1]; day 11 of treatment): 0.163 (0.017) cm^3
Tumor volume ([1]; day 13 of treatment): 0.185 (0.019) cm^3
Tumor volume ([1]; day 15 of treatment): 0.195 (0.020) cm^3
Tumor volume ([1]; day 18 of treatment): 0.217 (0.024) cm^3
Tumor volume ([1]; day 20 of treatment): 0.284 (0.040) cm^3
Tumor volume ([1]; day 22 of treatment): 0.349 (0.055) cm^3
Tumor volume increase ([1]; day 0): 100 Percentage
Tumor volume increase ([1]; day 4): 105 (4) Percentage
Tumor volume increase ([1]; day 6): 115 (6) Percentage
Tumor volume increase ([1]; day 8): 117 (7) Percentage
Tumor volume increase ([1]; day 11): 133 (11) Percentage
Tumor volume increase ([1]; day 13): 150 (10) Percentage
Tumor volume increase ([1]; day 15): 157 (10) Percentage
Tumor volume increase ([1]; day 18): 175 (12) Percentage
Tumor volume increase ([1]; day 20): 224 (22) Percentage
Tumor volume increase ([1]; day 22): 271 (29) Percentage
solubility in water [2]: about 0.00008 mg/mL
